Tests used:
Rattus norvegicus [1] = assay: Percent change in total cholesterol in cholic acid (0.5%)-cholesterol (1.5%)-peanut oil (5.5%)-fed rats after administration of 3 mg/kg for 7 days was determined; type: functional
Rattus norvegicus [2] = assay: Percent change in total cholesterol in cholic acid (0.5%)-cholesterol (1.5%)-peanut oil (5.5%)-fed rats after administration of 30 mg/kg was determined; type: functional
Rattus norvegicus [3] = assay: Percent change in total cholesterol in cholic acid (0.5%)-cholesterol (1.5%)-peanut oil (5.5%)-fed rats after administration of 3 mg/kg was determined; type: functional
Rattus norvegicus [4] = assay: Percent change in total cholesterol in cholic acid (0.5%)-cholesterol (1.5%)-peanut oil (5.5%)-fed rats after administration of 10 mg/kg for 7 days was determined; type: functional
Rattus norvegicus [5] = assay: Percent change in total cholesterol in cholic acid (0.5%)-cholesterol (1.5%)-peanut oil (5.5%)-fed rats after administration of 3 mg/kg was determined.; type: functional
Rattus norvegicus [6] = assay: Percent change in total cholesterol in cholic acid (0.5%)-cholesterol (1.5%)-peanut oil (5.5%)-fed rats after administration of 30 mg/kg was determined.; type: functional
Rattus norvegicus [7] = assay: Percent change in total cholesterol in cholic acid (0.5%)-cholesterol (1.5%)-peanut oil (5.5%)-fed rats after administration of 10 mg/kg for 7 days was determined.; type: functional
Rattus norvegicus [8] = assay: Percent change in total cholesterol in cholic acid (0.5%)-cholesterol (1.5%)-peanut oil (5.5%)-fed rats after administration of 3 mg/kg for 7 days was determined.; type: functional
Rattus norvegicus [9] = assay: Percent change in total cholesterol in cholic acid (0.5%)-cholesterol (1.5%)-peanut oil (5.5%)-fed rats after administration of 30 mg/kg for 7 days was determined; type: functional
[10] = target: T1, Sterol O-acyltransferase 1 (Rattus norvegicus, UniProt O70536); assay: Concentration required for the in vitro inhibition of Acyl coenzyme A:cholesterol acyltransferase (ACAT) in liver microsomes isolated from cholesterol-fed rats was determined; parameters: species or system Microsome
T1 sequence (O70536 whole entry): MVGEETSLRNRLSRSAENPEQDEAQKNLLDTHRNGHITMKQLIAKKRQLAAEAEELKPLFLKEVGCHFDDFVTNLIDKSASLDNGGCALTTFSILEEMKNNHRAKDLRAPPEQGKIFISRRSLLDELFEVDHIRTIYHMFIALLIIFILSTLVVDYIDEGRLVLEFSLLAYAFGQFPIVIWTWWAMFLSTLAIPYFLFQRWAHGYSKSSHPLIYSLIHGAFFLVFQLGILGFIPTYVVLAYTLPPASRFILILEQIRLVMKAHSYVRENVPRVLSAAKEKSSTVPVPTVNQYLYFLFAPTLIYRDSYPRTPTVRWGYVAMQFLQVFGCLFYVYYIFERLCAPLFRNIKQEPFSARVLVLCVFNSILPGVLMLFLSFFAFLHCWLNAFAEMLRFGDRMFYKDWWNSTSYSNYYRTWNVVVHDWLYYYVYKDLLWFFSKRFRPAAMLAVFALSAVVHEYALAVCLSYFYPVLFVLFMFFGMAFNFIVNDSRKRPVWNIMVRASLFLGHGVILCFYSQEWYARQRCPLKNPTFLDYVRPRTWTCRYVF

Structure (SMILES): CCCCCCCCCCC(C)(C)C(=O)Nc1c(OC)cc(OC)cc1OC [CL-976]
- Change TC (Rattus norvegicus [1]): -12%
- Change TC (Rattus norvegicus [2]): -57%
- Change TC (Rattus norvegicus [3]): -15%
- Change TC (Rattus norvegicus [4]): -17%

Structure (SMILES): CCCCCCCCCCCCn1nnc(C(C(=O)Nc2c(OC)cc(OC)cc2OC)c2ccccc2)n1 (stereo not drawn)
- Change TC (Rattus norvegicus [5]): -65%
- Change TC (Rattus norvegicus [6]): -63%
- Change TC (Rattus norvegicus [7]): -59%
- Change TC (Rattus norvegicus [8]): -23%

Structure (SMILES): CCCCCCCCCCCCn1nnc(C(C(=O)Nc2c(C(C)C)cccc2C(C)C)c2ccccc2)n1 (stereo not drawn)
- Change TC (Rattus norvegicus [9]): -38%
- Change TC (Rattus norvegicus [2]): -49%
- Change TC (Rattus norvegicus [3]): -46%

Structure (SMILES): CCCCCCCCCCCCn1nnc(C(C(=O)Nc2c(OC)cc(OC)cc2OC)c2ccccc2)n1 (single isomer, unassigned; (+))
- Change TC (Rattus norvegicus [1]; 3 mg/kg): -55%
- Change TC (Rattus norvegicus [2]; 30 mg/kg): -68%
- Change TC (Rattus norvegicus [3]; 3 mg/kg): -66%
- Change TC (Rattus norvegicus [4]; 10 mg/kg): -60%

Structure (SMILES): CCCCCCCCCCCCn1nnnc1C(C(=O)Nc1c(OC)cc(OC)cc1OC)c1ccccc1 (stereo not drawn)
- Change TC (Rattus norvegicus [6]): -38%

Structure (SMILES): CCCCCCCCCCCCn1nnnc1C(C(=O)Nc1c(C(C)C)cccc1C(C)C)c1ccccc1 (stereo not drawn)
- Change TC (Rattus norvegicus [9]): -24%
- Change TC (Rattus norvegicus [2]): -44%

Structure (SMILES): CCCCCCCCCCCCn1nnc(C(C(=O)Nc2c(OC)cc(OC)cc2OC)c2ccccc2)n1 (stereo in doubt; 8-(-))
- Change TC (Rattus norvegicus [1]; 3 mg/kg): 7%
- Change TC (Rattus norvegicus [2]; 30 mg/kg): -64%
- IC50 [10]: 330 nM
- Change TC (Rattus norvegicus [3]; 3 mg/kg): -47%
- Change TC (Rattus norvegicus [4]; 10 mg/kg): -11%

From ChEMBL document CHEMBL1128124, “Inhibitors of acyl-CoA: Cholesterol O-acyl transferase (ACAT) as hypocholesterolemic agents. 13. Design, synthesis and biological evaluation of tetrazole anilides as potent inhibitors of ACAT in vitro and hypocholesterolemic agents in vivo” (Bioorg Med Chem Lett, 1995)
